Test [1] addresses Voltage-dependent L-type calcium channel subunit alpha-1C (Rattus norvegicus, UniProt P22002). In kind it is functional.
Test [2] has as its target T1, B2 bradykinin receptor (Homo sapiens, UniProt P30411).
T1 sequence (P30411 whole entry): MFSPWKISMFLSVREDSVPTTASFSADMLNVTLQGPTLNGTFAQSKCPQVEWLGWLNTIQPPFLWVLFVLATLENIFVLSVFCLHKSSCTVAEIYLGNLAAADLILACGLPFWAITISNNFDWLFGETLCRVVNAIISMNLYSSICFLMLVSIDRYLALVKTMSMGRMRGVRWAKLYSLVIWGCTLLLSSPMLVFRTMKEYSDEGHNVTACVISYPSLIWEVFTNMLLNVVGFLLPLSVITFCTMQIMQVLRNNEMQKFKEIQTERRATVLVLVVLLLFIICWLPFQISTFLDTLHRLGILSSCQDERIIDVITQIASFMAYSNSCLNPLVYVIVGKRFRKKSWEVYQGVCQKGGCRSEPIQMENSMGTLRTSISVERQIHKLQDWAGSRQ

Test [3] has as its target Beta-1 adrenergic receptor (Homo sapiens, UniProt P08588). In kind it is functional.
Test [4] concerns the target Glutamate receptor ionotropic, NMDA 1 (Rattus norvegicus, UniProt P35439).
In test [5] the target is Mu-type opioid receptor (Homo sapiens, UniProt P35372).
Chain of Mu-type opioid receptor (P35372 whole entry): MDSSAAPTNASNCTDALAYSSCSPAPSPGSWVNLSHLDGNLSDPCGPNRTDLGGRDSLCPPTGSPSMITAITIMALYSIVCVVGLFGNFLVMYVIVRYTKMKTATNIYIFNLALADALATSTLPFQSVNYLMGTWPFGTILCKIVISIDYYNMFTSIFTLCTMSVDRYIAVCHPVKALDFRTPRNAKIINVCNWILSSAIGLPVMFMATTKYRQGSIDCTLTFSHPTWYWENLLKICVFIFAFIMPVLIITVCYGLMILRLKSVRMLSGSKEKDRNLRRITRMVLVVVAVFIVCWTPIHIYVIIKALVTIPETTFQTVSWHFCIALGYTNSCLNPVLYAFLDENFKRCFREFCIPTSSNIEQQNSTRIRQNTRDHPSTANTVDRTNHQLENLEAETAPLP
The target of test [6] is 5-hydroxytryptamine receptor 2B (Homo sapiens, UniProt P41595). The class given is functional, cell-based.
Chain of 5-hydroxytryptamine receptor 2B (P41595 whole entry): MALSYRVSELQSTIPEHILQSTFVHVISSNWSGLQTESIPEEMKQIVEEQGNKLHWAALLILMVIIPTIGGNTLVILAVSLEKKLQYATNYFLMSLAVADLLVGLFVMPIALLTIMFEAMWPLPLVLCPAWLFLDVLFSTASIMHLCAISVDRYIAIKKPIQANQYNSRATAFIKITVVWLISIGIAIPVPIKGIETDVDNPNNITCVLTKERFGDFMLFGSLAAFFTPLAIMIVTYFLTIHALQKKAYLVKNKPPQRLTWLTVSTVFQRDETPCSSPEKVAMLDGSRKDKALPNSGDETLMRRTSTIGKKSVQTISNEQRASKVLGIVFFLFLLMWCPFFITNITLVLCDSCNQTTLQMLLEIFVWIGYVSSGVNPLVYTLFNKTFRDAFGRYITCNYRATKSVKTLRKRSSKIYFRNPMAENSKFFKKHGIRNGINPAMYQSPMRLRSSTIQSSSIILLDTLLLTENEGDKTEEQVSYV
For test [7], the target named is T2, Muscarinic acetylcholine receptor M2 (Homo sapiens, UniProt P08172).
T2 sequence (P08172 whole entry): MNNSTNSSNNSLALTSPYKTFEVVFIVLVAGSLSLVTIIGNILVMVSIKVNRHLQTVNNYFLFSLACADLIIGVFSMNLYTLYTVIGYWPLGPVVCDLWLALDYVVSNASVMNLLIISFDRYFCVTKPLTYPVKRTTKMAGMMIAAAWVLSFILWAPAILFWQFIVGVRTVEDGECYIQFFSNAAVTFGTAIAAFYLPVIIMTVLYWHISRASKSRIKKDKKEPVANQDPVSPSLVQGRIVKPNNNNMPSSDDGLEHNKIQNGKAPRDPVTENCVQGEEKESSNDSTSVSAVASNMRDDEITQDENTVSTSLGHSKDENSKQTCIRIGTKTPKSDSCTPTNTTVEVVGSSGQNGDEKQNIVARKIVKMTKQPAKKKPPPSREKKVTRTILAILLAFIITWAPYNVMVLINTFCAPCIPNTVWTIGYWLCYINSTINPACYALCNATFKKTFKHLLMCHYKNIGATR

For test [8], the target named is T3, Alpha-1A adrenergic receptor (Homo sapiens, UniProt P35348).
T3 sequence (P35348 whole entry): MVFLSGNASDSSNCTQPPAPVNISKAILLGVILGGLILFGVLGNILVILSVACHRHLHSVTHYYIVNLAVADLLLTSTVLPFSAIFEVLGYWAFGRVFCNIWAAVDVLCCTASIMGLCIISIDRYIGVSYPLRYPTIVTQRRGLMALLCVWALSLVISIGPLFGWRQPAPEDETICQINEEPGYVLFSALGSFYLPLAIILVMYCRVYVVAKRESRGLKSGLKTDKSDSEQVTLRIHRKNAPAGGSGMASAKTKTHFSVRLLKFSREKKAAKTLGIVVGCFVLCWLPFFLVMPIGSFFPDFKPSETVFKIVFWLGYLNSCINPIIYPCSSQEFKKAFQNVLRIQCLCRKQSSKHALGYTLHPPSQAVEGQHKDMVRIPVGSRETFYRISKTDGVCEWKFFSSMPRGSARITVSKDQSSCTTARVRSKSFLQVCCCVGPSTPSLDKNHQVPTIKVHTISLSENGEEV
The class given is functional, cell-based.

Test [9] addresses D(3) dopamine receptor (Homo sapiens, UniProt P35462).
Test [10] concerns the target T4, Thromboxane A2 receptor (Homo sapiens, UniProt P21731).
T4 sequence (P21731 whole entry): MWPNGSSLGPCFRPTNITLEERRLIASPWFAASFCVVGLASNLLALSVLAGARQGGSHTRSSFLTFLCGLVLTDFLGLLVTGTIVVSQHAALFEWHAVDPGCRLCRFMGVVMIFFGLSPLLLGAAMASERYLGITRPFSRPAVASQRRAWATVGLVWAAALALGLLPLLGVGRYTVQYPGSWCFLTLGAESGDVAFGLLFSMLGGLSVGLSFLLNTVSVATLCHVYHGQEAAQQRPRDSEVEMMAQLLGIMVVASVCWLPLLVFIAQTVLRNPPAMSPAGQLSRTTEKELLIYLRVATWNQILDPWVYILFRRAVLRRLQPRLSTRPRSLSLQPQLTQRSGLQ
In kind it is functional, cell-based.

Test [11] has as its target 3',5'-cyclic-AMP phosphodiesterase 4A (Homo sapiens, UniProt P27815). In kind it is functional.
The target of test [12] is Vasopressin V1a receptor (Homo sapiens, UniProt P37288).
Test [13] has as its target T5, Muscarinic acetylcholine receptor M1 (Homo sapiens, UniProt P11229).
T5 sequence (P11229 whole entry): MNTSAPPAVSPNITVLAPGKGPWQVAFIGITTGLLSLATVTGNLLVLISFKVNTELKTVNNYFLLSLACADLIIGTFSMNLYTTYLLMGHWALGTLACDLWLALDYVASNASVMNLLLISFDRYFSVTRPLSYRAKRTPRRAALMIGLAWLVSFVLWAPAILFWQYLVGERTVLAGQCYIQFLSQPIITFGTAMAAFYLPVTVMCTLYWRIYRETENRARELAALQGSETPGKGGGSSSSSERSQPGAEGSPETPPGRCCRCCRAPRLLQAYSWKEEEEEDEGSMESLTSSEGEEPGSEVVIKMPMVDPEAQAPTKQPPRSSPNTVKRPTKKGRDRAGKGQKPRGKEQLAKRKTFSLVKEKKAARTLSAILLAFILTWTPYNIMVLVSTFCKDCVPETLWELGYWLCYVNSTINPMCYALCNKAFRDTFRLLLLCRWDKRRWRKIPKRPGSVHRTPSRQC
In kind it is functional.

Test [14] has as its target Histamine H1 receptor (Homo sapiens, UniProt P35367).

A value given as a limit tells only on which side of the number the result lay.
Also: assay procedure not described here.

Chain of Beta-1 adrenergic receptor (P08588 whole entry): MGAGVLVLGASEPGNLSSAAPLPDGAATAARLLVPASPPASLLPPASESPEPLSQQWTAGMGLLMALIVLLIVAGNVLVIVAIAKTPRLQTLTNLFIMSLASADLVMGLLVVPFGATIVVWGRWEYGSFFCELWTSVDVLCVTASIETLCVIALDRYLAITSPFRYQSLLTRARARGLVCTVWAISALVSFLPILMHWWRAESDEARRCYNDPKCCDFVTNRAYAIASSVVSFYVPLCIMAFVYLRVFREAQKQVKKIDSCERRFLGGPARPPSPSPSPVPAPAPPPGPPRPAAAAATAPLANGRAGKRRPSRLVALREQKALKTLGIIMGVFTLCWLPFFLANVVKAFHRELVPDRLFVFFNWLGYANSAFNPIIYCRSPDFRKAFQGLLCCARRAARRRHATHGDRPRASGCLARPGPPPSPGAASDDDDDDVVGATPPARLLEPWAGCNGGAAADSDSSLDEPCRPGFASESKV
Chain of D(3) dopamine receptor (P35462 whole entry): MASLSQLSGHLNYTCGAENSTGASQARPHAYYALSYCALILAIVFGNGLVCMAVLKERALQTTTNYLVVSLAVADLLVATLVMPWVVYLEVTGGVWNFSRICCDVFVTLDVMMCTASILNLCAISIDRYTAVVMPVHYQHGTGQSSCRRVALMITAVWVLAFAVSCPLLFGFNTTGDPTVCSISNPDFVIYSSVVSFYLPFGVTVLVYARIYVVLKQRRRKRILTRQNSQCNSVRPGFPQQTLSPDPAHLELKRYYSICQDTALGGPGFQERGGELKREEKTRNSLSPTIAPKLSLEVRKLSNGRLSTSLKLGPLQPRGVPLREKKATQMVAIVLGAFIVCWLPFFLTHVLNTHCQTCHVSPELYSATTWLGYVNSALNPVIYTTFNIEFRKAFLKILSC
Chain of 3',5'-cyclic-AMP phosphodiesterase 4A (P27815 whole entry): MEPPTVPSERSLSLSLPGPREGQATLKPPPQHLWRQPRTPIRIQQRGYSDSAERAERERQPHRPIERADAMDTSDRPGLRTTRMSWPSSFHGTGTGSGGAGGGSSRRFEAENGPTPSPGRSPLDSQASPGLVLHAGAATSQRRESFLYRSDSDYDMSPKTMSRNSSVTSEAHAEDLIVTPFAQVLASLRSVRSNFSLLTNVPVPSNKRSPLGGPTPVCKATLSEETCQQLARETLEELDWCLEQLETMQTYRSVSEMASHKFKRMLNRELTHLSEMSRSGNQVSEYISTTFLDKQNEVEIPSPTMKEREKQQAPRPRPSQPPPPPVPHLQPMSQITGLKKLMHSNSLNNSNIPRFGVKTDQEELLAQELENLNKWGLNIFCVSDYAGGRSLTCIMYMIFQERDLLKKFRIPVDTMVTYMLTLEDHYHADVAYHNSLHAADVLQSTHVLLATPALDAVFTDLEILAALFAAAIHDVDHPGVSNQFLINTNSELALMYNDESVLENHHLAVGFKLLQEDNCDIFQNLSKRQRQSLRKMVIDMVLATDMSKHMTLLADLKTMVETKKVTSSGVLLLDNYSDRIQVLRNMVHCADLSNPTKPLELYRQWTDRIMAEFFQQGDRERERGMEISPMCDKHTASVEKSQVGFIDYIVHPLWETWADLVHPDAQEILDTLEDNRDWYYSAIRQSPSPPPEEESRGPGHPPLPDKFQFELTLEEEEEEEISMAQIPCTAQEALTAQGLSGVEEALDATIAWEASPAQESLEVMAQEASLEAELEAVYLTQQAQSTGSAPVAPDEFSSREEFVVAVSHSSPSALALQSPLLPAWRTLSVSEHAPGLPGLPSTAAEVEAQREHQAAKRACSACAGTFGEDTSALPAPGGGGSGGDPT
Chain of Voltage-dependent L-type calcium channel subunit alpha-1C (P22002 whole entry): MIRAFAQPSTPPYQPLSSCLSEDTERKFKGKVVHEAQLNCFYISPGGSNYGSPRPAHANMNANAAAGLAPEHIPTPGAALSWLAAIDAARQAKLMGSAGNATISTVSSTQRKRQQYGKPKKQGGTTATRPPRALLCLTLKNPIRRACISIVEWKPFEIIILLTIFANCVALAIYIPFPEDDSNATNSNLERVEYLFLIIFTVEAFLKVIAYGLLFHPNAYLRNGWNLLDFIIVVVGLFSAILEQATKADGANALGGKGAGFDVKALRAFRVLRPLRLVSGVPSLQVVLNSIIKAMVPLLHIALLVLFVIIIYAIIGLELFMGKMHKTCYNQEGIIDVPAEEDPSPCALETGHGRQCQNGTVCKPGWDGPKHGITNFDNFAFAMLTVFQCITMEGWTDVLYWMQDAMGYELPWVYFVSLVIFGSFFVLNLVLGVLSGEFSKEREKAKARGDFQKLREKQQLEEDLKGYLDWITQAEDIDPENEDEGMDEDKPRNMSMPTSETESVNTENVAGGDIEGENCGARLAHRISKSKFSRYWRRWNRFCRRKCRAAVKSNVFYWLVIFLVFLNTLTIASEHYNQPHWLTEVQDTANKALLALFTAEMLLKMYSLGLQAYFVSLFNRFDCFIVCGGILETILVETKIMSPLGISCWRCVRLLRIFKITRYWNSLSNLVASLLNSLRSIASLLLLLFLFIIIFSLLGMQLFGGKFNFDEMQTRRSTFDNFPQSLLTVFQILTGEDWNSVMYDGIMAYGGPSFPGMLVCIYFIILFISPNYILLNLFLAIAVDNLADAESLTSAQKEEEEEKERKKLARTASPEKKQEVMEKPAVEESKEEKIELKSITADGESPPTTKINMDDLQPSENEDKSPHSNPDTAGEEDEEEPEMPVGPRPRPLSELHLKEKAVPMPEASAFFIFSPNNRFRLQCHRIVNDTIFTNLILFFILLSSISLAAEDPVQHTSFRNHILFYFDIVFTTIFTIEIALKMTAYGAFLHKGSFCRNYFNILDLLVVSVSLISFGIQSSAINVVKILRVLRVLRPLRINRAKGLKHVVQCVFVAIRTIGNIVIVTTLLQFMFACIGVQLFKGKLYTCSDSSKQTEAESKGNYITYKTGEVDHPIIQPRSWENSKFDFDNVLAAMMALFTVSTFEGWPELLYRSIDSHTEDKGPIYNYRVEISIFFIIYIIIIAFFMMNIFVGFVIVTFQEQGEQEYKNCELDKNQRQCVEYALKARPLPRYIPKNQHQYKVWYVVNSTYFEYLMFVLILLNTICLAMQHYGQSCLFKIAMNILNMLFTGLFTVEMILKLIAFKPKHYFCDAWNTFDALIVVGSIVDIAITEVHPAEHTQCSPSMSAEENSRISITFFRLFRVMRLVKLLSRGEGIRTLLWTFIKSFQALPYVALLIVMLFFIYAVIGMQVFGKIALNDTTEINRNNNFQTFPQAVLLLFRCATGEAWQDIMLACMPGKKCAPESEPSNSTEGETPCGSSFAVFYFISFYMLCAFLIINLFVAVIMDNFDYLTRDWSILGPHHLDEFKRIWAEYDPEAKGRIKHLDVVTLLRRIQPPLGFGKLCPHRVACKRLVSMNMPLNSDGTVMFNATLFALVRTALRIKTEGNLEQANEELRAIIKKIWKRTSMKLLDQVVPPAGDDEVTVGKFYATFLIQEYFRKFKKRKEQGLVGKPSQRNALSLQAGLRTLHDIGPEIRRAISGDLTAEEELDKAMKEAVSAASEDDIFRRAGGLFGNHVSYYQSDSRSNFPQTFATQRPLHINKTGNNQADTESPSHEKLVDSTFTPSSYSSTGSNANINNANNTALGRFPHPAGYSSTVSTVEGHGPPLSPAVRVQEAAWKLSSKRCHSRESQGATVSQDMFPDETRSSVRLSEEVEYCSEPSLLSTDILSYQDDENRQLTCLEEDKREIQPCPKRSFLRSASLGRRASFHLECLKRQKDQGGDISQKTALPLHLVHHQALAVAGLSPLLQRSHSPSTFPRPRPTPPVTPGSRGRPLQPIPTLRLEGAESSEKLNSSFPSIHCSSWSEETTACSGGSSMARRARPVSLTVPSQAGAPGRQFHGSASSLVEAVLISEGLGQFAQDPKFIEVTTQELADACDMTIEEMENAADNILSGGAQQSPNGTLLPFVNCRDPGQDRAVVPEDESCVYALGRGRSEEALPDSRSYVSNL

On to `COC(=O)CCc1ccc(OCC(O)CNC(C)C)cc1` (stereo not drawn) [ESMOLOL], for which the AC50 in test [1] is greater than 30 µM; in [2] it was greater than 30 µM; in [3], 0.856 µM; in [4], greater than 30 µM.

Turning to `O=c1[nH]c2ccccc2n1CCN1CCN(c2cccc(C(F)(F)F)c2)CC1` [FLIBANSERIN], the AC50 in [5] was 1.3 µM; in [6], greater than 30 µM; in test [7], greater than 30 µM; in test [8], 0.391 µM; in test [9] it was 0.286 µM; in test [10], greater than 30 µM. Besides, in test [11], the AC50 was greater than 30 µM.

For `NC(=O)C1(N2CCCCC2)CCN(CCCC(=O)c2ccc(F)cc2)CC1` [PIPAMPERONE], the AC50 in [5] is 7.02 µM; in [6], greater than 30 µM; in test [7], greater than 30 µM; in test [8], 0.398 µM; in [9], 1.77 µM; in [10], greater than 30 µM. In addition, the AC50 in [11] was greater than 30 µM.

On to `O=NN(CCCl)C(=O)NC1CCCCC1` [LOMUSTINE], for which the concentration at half-maximal activity (AC50) in test [5] was greater than 30 µM; in [6], greater than 30 µM; in [7], greater than 30 µM; in test [8] it was greater than 3 µM; in test [9] it was greater than 30 µM; in [10] it was greater than 30 µM. Besides, the AC50 in [11] is 25.7 µM.

For `COc1cccc2c1C(=O)c1c(O)c3c(c(O)c1C2=O)C[C@@](O)(C(=O)CO)C[C@@H]3O[C@H]1C[C@H](N)[C@H](O[C@@H]2CCCCO2)[C@H](C)O1` [PIRARUBICIN], the AC50 in test [5] is greater than 30 µM; in [6], greater than 30 µM; in test [7] it was greater than 30 µM; in test [8], greater than 10 µM; in [9], greater than 30 µM; in test [10], greater than 1 µM. The compound also had an AC50 in test [11] greater than 30 µM.

For the compound `CCCCCCCCCCCCCCCC(=O)OC[C@H](COP(=O)([O-])OCC[N+](C)(C)C)OC(=O)CCCCCCCCCCCCCCC` [COLFOSCERIL PALMITATE], the AC50 in test [5], in [6], in test [7], in test [8], in [9] and in [10] was greater than 30 µM in each case. The AC50 in test [11] was greater than 30 µM.

For the compound `N=C(N)NCC1COc2ccccc2O1` (stereo not drawn) [GUANOXAN], the AC50 was greater than 30 µM in test [5]; greater than 30 µM in test [6]; greater than 30 µM in test [7]; 21.3 µM in test [8]; 8.54 µM in [9]; greater than 30 µM in test [10]. Further, in test [11], the AC50 was greater than 30 µM.

`Cc1cccc(C)c1NC(=O)c1cc(S(N)(=O)=O)c(Cl)cc1O` [XIPAMIDE]: the AC50 in test [5], in [6], in [7], in test [8], in test [9] and in test [10] was greater than 30 µM in each case. Besides, in [11], the AC50 was greater than 30 µM.

`C=CCOc1ccc(CC(=O)O)cc1Cl` [ALCLOFENAC]: the AC50 in test [5], in test [6], in test [7], in test [8], in test [10] and in [11] was greater than 30 µM throughout.

In the case of `CN1CCN(C(c2ccccc2)c2ccc(Cl)cc2)CC1` (stereo not drawn) [CHLORCYCLIZINE], the AC50 in [5] is greater than 30 µM; in [6], greater than 30 µM; in test [7], 0.505 µM; in [8], 4.86 µM; in [9] it was 0.449 µM; in test [10], 11.3 µM. The compound also returned an AC50 in test [11] greater than 30 µM.

For the compound `CO[C@@]1(NC(=O)C(C(=O)O)c2ccc(O)cc2)C(=O)N2C(C(=O)O)=C(CSc3nnnn3C)CO[C@@H]21` (stereo partly drawn) [MOXALACTAM], the AC50 in [5], in test [6], in [7], in test [8], in test [9] and in [10] was greater than 30 µM throughout. In test [11], this compound had an AC50 greater than 30 µM.

In the case of `OC[C@H]1NC[C@H](O)[C@@H](O)[C@H]1O`, the AC50 in test [5], in test [6], in test [7], in [8], in test [9] and in test [10] was greater than 30 µM in each case. This compound also gave an AC50 in [11] greater than 30 µM.

Take `O=P1(N(CCCl)CCCl)NCCCO1` (stereo not drawn) [CYCLOPHOSPHAMIDE ANHYDROUS]: the AC50 in test [5], in test [6], in test [7], in test [8], in test [9] and in test [10] was greater than 30 µM throughout. Moreover, in test [11], the AC50 is greater than 30 µM.

For `CN(C)CCCC1(c2ccc(F)cc2)OCc2cc(C#N)ccc21` (stereo not drawn) [CITALOPRAM], the AC50 in test [6] is greater than 30 µM; in test [1], greater than 10 µM; in test [2] it was greater than 30 µM; in [10] it was greater than 30 µM; in [11] it was greater than 30 µM; in test [3], greater than 10 µM. Moreover, the AC50 in test [12] and in test [4] was greater than 10 µM each time.

`O=C(O)[C@@H](S)[C@@H](S)C(=O)O`: the AC50 in test [5], in test [6], in test [7], in test [9], in test [10] and in [11] was greater than 30 µM each time.

As to `CC(=O)NC[C@H]1CN(c2ccc(N3CCOCC3)c(F)c2)C(=O)O1` [LINEZOLID], the AC50 in [2], in [3], in test [13], in test [4] and in [14] was greater than 30 µM throughout.

With `CC(C)NCC(O)COc1ccc(CC(N)=O)cc1` (stereo not drawn) [ATENOLOL], the concentration at half-maximal activity (AC50) in test [2], in [12] and in [4] was greater than 30 µM in each case.

`NC(=O)C1(N2CCCCC2)CCN(CCCN2c3ccccc3CCc3ccccc32)CC1` [CARPIPRAMINE]: the AC50 was 0.342 µM in test [5]; greater than 30 µM in test [6]; 4.39 µM in test [7]; 0.0207 µM in test [9]; 24.6 µM in test [10]; greater than 30 µM in test [11].

On to `NCCCNCCSP(=O)(O)O` [AMIFOSTINE], for which the AC50 in test [2], in [3] and in [4] was greater than 30 µM throughout.

In general, AC50 refers to the concentration giving half of the maximal activity seen.

Source of the values: ChEMBL document CHEMBL5291721, “A preclinical secondary pharmacology resource illuminates target-adverse drug reaction associations of marketed drugs” (Nat Commun, 2023).
